Test results from PubChem BioAssay AID2060906 (Molecular Pharmacology Branch, DTP, NCI, 2025).

Test system: 485176-168-R4-J1-PDC complex spheroid growth
Experiment: Anticancer human tumor 485176-168-R4-J1-PDC patient-derived pancreatic adenocarcinoma cell line growth inhibition [RAS]
Conditions: for IC50: curve of first compound; for viability, T/C: stronger effect = lower value; active = viability on the fitted dose curve at most 10% of control; inactive = the rest
Description: RAS pathway inhibitors in Combinations in Complex Spheroids
A high-throughput screen of multi-cell type tumor spheroids was designed to identify active combinations of RAS pathway inhibitors and targeted small molecules. Complex spheroids include a stromal component modeled by human endothelial cells (HUVEC) and fibroblasts modeled by human mesenchymal stem cells (MSCs). The concentration ranges selected for each drug and investigational agent were based upon clinically achievable concentrations if the clinical Cmax of the agent was known.
Compounds. The drugs and investigational agents: abemaciclib (NSC768073), cobimetinib (NSC768068), divarasib (GDC6063, NSC841802), docetaxel (NSC628503), GDC-1971 (RLY-1971, NSC841576), gemcitabine (NSC613327), inavolisib (NSC800729), ipatasertib (NSC767898), KB-0742 (NSC834161), MRTX-1133 (NSC836407), osimertinib (NSC779217), RMC-4630 (NSC839698), RMC-6236 (NSC851965), RMC-6291 (NSC852671), Ro-3306 (NSC812927), sapanisertib (NSC764658), SN-38 (NSC673596), staurosporine (NSC755774), SY5609 (NSC837396), and tovorafenib (DAY101, NSC766906), were obtained from the National Cancer Institute (NCI) Developmental Therapeutics Program Chemical Repository. The FDA-approved anticancer drug set is available from the NCI Developmental Therapeutics Program. […] The stock solutions were prepared in dimethyl sulfoxide (DMSO, Sigma-Aldrich, St. Louis, MO, cat. D2650) at 800-fold the tested concentration and stored at -70 degrees C prior to their use. All drugs and investigational agents were tested over a range starting from a high concentration at or near the clinical Cmax and decreasing in half-log increments. If the clinical Cmax for an agent had not been determined, the highest concentration tested was 10 microM.
Cell Culture. All cells were maintained in an incubator at 37 degrees C and 5% CO2 with 95% humidity. The PDC lines were cultured according to standard operating procedures established by the NCI PDMR. All PDCs were thawed and cultured in Matrigel-coated flasks prepared with a working solution of 1X Ham's F-12 nutrient mix, without supplementation (Invitrogen, Waltham, MA, cat. 11765054), 100 U/mL penicillin-streptomycin (Invitrogen, cat. 15140122), and 2.5% Matrigel (Corning Inc., Corning, NY, cat. 354248) for the first three passages. The 362531-283-R-J2-PDC and 782815-120-R-J1-PDC lines were cultured in 6C/Colon 1B media, which includes advanced DMEM/F-12 (Thermo Fisher Scientific, cat. 12634028), 10 mM HEPES (Thermo Fisher Scientific, cat. 15630080), 1X GlutaMAX supplement (Thermo Fisher Scientific, cat. 35050061), 0.1 mg/mL primocin (InvivoGen, San Diego, CA, cat. ant-pm-2), 10% defined fetal bovine serum, heat inactivated (HyClone Laboratories Inc., Logan, UT, cat. SH30070.03HI), 50% L-WRN conditioned media (ATCC, cat. CRL-3276), 1.25 mM N-Acetyl-L-cysteine (Sigma-Aldrich, cat. A9165), 10 mM nicotinamide (Sigma-Aldrich, cat. N0636), 1X B-27 supplement (Thermo Fisher Scientific, cat. 17504044), 1X N-2 supplement (Thermo Fisher Scientific, cat. 17502048), 50 ng/mL human EGF (Thermo Fisher Scientific, cat. PHG0311), and 10 microM Y-27632 dihydrochloride (Tocris Bioscience, cat. 1254). The K12877-001-R-J1-PDC line was cultured in 6I media, which includes all 6C/Colon 1B media plus 10 ng/mL human FGF-10 (PeproTech, cat. 100-26), 1 ng/mL human FGF-2 (PeproTech, cat. 100-18B), 1 µM prostaglandin E2 (Tocris Bioscience, cat. 2296), […] hydrocortisone (Sigma-Aldrich, cat. H4001), and […] bovine insulin (Sigma-Aldrich, cat. I6634). The K86415-001-R-J1-PDC line was cultured in 6D media, which includes all 6C/Colon 1B media components minus the L-WRN conditioned media. The 485176-168-R4-J1-PDC was cultured in PANC media, which includes all 6C/Colon 1B media plus 100 ng/mL human FGF-10 (PeproTech, cat. 100-26), 500 nM SB-431542 (Selleckchem, cat. S1067), and 10 nM gastrin (Tocris Bioscience, cat. 3006). […]
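Also: spheroids exposed to compounds for seven days before readout.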
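For viability, T/C in this document: luminescence viability expressed relative to DMSO vehicle wells set as 100%.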

CCN1CCN(Cc2ccc(Nc3ncc(F)c(-c4cc(F)c5nc(C)n(C(C)C)c5c4)n3)nc2)CC1 + C#Cc1c(F)ccc2cc(O)cc(-c3ncc4c(N5CC6CCC(C5)N6)nc(OCC56CCCN5CC(F)C6)nc4c3F)c12
inactive: viability, T/C (second compound 0.0316 µM, first compound 0.00316 µM) 91.1% | viability, T/C (second compound 0.0316 µM, first compound 0.01 µM) 83.4% | viability, T/C (second compound 0.0316 µM, first compound 0.0316 µM) 101% | viability, T/C (second compound 0.0316 µM, first compound 0.1 µM) 100% | viability, T/C (second compound 0.0316 µM, first compound 0.316 µM) 73.9% | viability, T/C (second compound 0.0316 µM, first compound 1 µM) 64.9% | viability, T/C (second compound 0.1 µM, first compound 0.00316 µM) 117% | viability, T/C (second compound 0.1 µM, first compound 0.01 µM) 109% | viability, T/C (second compound 0.1 µM, first compound 0.0316 µM) 79.7% | viability, T/C (second compound 0.1 µM, first compound 0.1 µM) 85.1% | viability, T/C (second compound 0.1 µM, first compound 0.316 µM) 78.8% | viability, T/C (second compound 0.1 µM, first compound 1 µM) 55.4% | viability, T/C (second compound 0.316 µM, first compound 0.00316 µM) 97.1% | viability, T/C (second compound 0.316 µM, first compound 0.01 µM) 95.6% | viability, T/C (second compound 0.316 µM, first compound 0.0316 µM) 90.7% | viability, T/C (second compound 0.316 µM, first compound 0.1 µM) 104% | viability, T/C (second compound 0.316 µM, first compound 0.316 µM) 84.3% | viability, T/C (second compound 0.316 µM, first compound 1 µM) 63.9% | viability, T/C (second compound 1 µM, first compound 0.00316 µM) 96.8% | viability, T/C (second compound 1 µM, first compound 0.01 µM) 101% | viability, T/C (second compound 1 µM, first compound 0.0316 µM) 101% | viability, T/C (second compound 1 µM, first compound 0.1 µM) 86.8% | viability, T/C (second compound 1 µM, first compound 0.316 µM) 72% | viability, T/C (second compound 1 µM, first compound 1 µM) 70.1% | viability, T/C (second compound 3.16 µM, first compound 0.00316 µM) 110% | viability, T/C (second compound 3.16 µM, first compound 0.01 µM) 92.8% | viability, T/C (second compound 3.16 µM, first compound 0.0316 µM) 81.5% | viability, T/C (second compound 3.16 µM, first compound 0.1 µM) 92.8% | viability, T/C (second compound 3.16 µM, first compound 0.316 µM) 77.5% | viability, T/C (second compound 3.16 µM, first compound 1 µM) 61.3% | viability, T/C (second compound 10 µM, first compound 0.00316 µM) 103% | viability, T/C (second compound 10 µM, first compound 0.01 µM) 95.5% | viability, T/C (second compound 10 µM, first compound 0.0316 µM) 84.4% | viability, T/C (second compound 10 µM, first compound 0.1 µM) 79.6% | viability, T/C (second compound 10 µM, first compound 0.316 µM) 96.6% | viability, T/C (second compound 10 µM, first compound 1 µM) 61.6%
> 1000 nM: IC50 (second compound 0.0316 µM) | IC50 (second compound 0.1 µM) | IC50 (second compound 0.316 µM) | IC50 (second compound 1 µM) | IC50 (second compound 3.16 µM) | IC50 (second compound 10 µM)
